Read-outs that look alike come from different tables or passages of the source.
Tested on: HCoV-229E
Assay: Antiviral activity and toxicity against HCoV-229E
Assay type: cell-based

Structure (SMILES)	EC50	EC50 (Human coronavirus 229E)
CCCCCCCCCCCCCC(=O)OCC1OC(n2cc(F)c(N)nc2=O)CS1 (centres unmarked) [5′-O-tetradecanoyl ester conjugate of 2′,3′-dideoxy-5-fluoro-3′-thiacytidine]	82 µM	
CCC(CC)COC(=O)[C@H](C)N[P@](=O)(OC[C@H]1O[C@@](C#N)(c2ccc3c(N)ncnn23)[C@H](O)[C@@H]1O)Oc1ccccc1 [RDV, Remdesivir]		0.07 µM

Source: patent publication US20230173077A1 (AJK BIOPHARMACEUTICAL, LLC, priority 2020, published 2023)
